From article PMC7419010 (PLoS Pathogens, 2020)
“Also recorded” adds a separate entry of the source. Read-outs that look alike come from different tables or passages of the source.

Assays:
Lsa-nAChR1 (α1α2β1β2) = Lsa-nAChR1 (α1α2β1β2) (Lepeophtheirus salmonis, UniProt A0A7S5PZ05+A0A7S5Q3W4+A0A7S5Q7H3+A0A7S5U9A3); assay: cell-based; format: cell-based; conditions: for agonist screening (pre- and co-application protocol): 1 μM; for type of effect on the receptor (agonist / partial-agonist / no effect): dose-response; for Emax: read-out: Max peak (% Ach); for inward current on average: 10 μM sazetidine A
Method: (§1) Capped cRNAs were synthesized (T7 mMessage mMachine kit, Ambion, Austin, TX, USA) from the linearized vectors containing the different subunits according to the manufacturer’s protocol. cRNA samples were stored at -80°C until use. Oocytes were ordered from Ecocyte (Germany). Oocytes were microinjected using a Roboinject automatic injection system (Multi Channel Systems, Reutlingen, Germany) with 15–25 nl of cRNA solution (30–300 ng/μl per subunit) and then incubated at 18°C in sterile filtered Barth solution containing: NaCl (88 mM), KCl (1 mM), NaHCO3 (2.4 mM), HEPES (10 mM, pH 7.5), MgSO4·7H2O (0.82 mM), Ca(NO3)2·4H2O (0.33 mM), CaCl2·6H2O (0.41 mM), at pH 7.4, and supplemented with 20 μg/ml of kanamycin, 100 U/ml benzylpenicillin and 100 μg/ml streptomycin. Recordings were made 3–5 days post-cRNA injection.
(§2) Oocytes were impaled with two electrodes filled with 3 M KCl, and their membrane potentials were maintained at -80 mV throughout the experiment. Currents evoked by ACh or drugs were recorded using an automated process equipped with standard two-electrode voltage-clamp configuration (HiClamp, MultiChannel Systems). The principle of this system differs from standard electrophysiology because, instead of applying the compound in the perfusion, the oocyte is moved into a well from a 96-well microtiter plate containing the desired solution. Data were captured at 100 Hz, filtered at 10 Hz, and analyzed using proprietary data acquisition and analysis software running under Matlab (Mathworks Inc., Natick, MA, USA). Additional analyses were performed in Excel (Microsoft, Redmond, WA, USA). […] Concentration-activation curves were fitted with the equation: Y=100/1+10^H(logEC50−X) (1) where Y is the normalized response, logEC50 is the logarithm of the concentration of agonist eliciting half-maximal current amplitude, X is the log of dose or concentration, and H is the slope factor or Hill slope. Individual curves were standardized to the initial ACh (100 μM) application amplitude and subsequently averaged. EC50 values were determined from the mean of at least 3 or more cells.
(§3) Dose-response curves were obtained by sequential applications for 10s of increasing concentrations of ACh or drugs to oocytes expressing Lsa-nAChR1 or Lsa-nAChR2. A total time of 90 s time was allowed between applications for the channel to recover from any desensitization. To test the antagonistic effect of DHbE (Fig 5) and for the screening protocol (Fig 6), cells that evoked a significant current with ACh were exposed to the test compounds at 10 μM respectively 1 μM using a pre-application of 45 s and co-application of 10 s with ACh (1 μM).

Lsa-nAChR2 (α3β1β2) = Lsa-nAChR2 (α3β1β2) (Lepeophtheirus salmonis, UniProt A0A7S5PZ03+A0A7S5PZ05+A0A7S5Q7H3); assay: cell-based; format: cell-based; conditions: for type of effect on the receptor (agonist / partial-agonist / super-agonist / no effect): dose-response; for agonist screening (pre- and co-application protocol): 1 μM; for Max peak (% Ach): maximal peak current compared to ACh 100 μM
Method: as §1, §2, §3

L. salmonis (preadult 2) = assay: In-vivo exposure of preadult salmon lice to 1 mg/L for 24 h; parameters: species or system Lepeophtheirus salmonis; conditions: for Efficacy at 1.0 mg/L (%): preadult 2 parasites
Method: The exposure of preadult 2 parasites were conducted as described in [48]. The parasites originated from a salmon louse strain sensitive to all tested compounds [49]. The cultivation of salmon lice was conducted at the NIVA Marine Research Station Solbergstrand in the Oslofjord. Laboratory reared Atlantic salmon of were kept in 1 m^3 tanks supplied with running seawater, salinity 33–35 parts per thousand, temperature 7–9°C. Salmon lice egg strings were harvested from adult females and hatched according to [50]. The preadult salmon lice were harvested on the day of exposure. Fish were anaesthetized with 100 mg/L metacaine for 2 min. The parasites were gently removed from the fish with forceps, placed directly in glass containers filled with 1000 mL filtered seawater and exposed to the compounds within 4 h.
Each group of parasites was exposed to 1 mg/L of the test substance for 24 h. The compounds were dissolved in DMSO and an emulsifier was added immediately before dilution with water. The bottles were finally incubated at 10°C according to [49], with continuous air supply, for 24 h.
After the incubation period was over, the solution with parasites was poured out through a funnel containing a filter. Parasites remaining attached to the bottle wall were classified as alive. Immobilized parasites were collected from the filter. […] All parasites in the two groups were counted and classified according to sex and developmental stage.

[1] = Xenopus oocytes, 1:1 (α:β) ratio
[2] = EC50 (nM), Xenopus oocytes, 1:1 (α:β) ratio
[3] = calculated EC50, text values in μM, 1:1 (α:β) ratio

Chain of Lsa-nAChR1 (α1α2β1β2) (A0A7S5PZ05 entry or part of it): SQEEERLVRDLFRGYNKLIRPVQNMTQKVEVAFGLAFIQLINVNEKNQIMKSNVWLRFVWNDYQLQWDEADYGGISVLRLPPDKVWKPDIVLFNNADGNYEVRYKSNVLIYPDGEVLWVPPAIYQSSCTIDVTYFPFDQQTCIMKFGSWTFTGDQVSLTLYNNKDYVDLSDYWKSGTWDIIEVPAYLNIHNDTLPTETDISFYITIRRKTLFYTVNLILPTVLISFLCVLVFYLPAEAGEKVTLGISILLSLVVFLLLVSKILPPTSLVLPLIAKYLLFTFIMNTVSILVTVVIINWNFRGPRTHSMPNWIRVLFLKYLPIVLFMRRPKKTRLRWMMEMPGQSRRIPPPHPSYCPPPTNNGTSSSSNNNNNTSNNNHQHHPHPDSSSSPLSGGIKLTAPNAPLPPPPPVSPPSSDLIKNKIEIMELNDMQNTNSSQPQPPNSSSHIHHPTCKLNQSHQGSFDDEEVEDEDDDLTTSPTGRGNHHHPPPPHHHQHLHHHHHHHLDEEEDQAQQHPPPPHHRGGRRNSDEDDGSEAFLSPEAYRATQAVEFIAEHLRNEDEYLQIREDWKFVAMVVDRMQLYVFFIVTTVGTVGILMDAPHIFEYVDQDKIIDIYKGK
Chain of Lsa-nAChR1 (α1α2β1β2) (A0A7S5Q3W4 entry or part of it): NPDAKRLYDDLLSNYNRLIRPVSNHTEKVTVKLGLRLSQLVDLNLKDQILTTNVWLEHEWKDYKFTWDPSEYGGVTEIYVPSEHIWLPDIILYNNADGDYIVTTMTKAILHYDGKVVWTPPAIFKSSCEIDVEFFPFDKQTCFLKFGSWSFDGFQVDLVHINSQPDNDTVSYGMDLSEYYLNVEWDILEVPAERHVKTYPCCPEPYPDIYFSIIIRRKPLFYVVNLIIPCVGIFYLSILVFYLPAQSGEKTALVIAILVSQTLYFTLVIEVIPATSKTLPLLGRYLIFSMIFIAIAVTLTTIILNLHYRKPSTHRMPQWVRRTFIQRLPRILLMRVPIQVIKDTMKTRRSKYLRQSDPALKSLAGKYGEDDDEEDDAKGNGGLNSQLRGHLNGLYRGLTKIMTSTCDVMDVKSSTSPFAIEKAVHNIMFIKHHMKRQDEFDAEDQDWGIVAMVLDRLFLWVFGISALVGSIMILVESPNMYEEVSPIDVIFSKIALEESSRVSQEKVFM
Chain of Lsa-nAChR1 (α1α2β1β2) (A0A7S5U9A3 entry or part of it): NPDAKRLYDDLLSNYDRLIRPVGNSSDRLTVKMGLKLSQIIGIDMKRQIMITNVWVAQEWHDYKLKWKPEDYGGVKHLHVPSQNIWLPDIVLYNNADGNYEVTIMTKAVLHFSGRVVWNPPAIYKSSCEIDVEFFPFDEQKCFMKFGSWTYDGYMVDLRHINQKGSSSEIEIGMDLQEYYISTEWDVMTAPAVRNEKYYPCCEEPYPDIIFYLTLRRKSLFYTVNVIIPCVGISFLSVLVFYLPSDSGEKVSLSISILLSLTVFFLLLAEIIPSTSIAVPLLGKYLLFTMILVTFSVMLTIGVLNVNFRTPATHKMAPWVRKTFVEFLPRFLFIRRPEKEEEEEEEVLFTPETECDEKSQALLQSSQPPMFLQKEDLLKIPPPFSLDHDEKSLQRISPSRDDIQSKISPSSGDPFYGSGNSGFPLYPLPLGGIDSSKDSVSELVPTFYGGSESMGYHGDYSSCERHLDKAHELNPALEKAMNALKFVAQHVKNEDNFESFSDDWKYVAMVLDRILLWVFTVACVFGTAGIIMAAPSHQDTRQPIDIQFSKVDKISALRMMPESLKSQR
Chain of Lsa-nAChR1 (α1α2β1β2) (A0A7S5Q7H3 entry or part of it): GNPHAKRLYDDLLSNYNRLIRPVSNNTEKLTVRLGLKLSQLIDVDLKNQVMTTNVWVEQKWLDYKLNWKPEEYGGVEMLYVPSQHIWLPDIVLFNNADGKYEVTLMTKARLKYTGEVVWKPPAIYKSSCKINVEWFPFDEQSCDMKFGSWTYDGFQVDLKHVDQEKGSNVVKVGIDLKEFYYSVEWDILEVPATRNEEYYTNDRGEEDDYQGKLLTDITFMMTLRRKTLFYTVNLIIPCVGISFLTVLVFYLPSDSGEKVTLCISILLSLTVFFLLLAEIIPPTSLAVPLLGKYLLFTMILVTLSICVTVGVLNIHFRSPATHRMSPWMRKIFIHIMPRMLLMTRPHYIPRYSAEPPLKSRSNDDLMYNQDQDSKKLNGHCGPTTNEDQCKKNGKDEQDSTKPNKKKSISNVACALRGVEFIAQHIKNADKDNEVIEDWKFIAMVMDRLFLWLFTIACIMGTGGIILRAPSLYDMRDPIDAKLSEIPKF

Compound | EC50 (Lsa-nAChR1 (α1α2β1β2)) [nM] | agonist screening (pre- and co-application protocol) (Lsa-nAChR1 (α1α2β1β2); 1:1 (α:β) ratio) | type of effect on the receptor (agonist / partial-agonist / no effect) (Lsa-nAChR1 (α1α2β1β2); 1:1 (α:β) ratio) | Emax (Lsa-nAChR1 (α1α2β1β2)) [%] | EC50 (nM) (Lsa-nAChR2 (α3β1β2); [1]) | type of effect on the receptor (agonist / partial-agonist / super-agonist / no effect) (Lsa-nAChR2 (α3β1β2); 1:1 (α:β) ratio) | Efficacy at 1.0 mg/L (%) (L. salmonis (preadult 2)) | EC50 (nM) (Lsa-nAChR1 (α1α2β1β2); [1]) | agonist screening (pre- and co-application protocol) (Lsa-nAChR2 (α3β1β2); 1:1 (α:β) ratio) | Max peak (% Ach) (Lsa-nAChR2 (α3β1β2); 1:1 (α:β) ratio) [%] | also measured
C/C(=N\C#N)N(C)Cc1ccc(Cl)nc1 [Acetamiprid] | 10300 | agonists | partial-agonist | 34.1 | No effect | did not affect; also recorded: did not demonstrate any ex-vivo effect | 89.5 | – | – | – | lethal effect / mortality of preadult parasites (L. salmonis (preadult 2)): significant lethal effect; also recorded: high mortality rates
COP(=O)(OC)SCn1c(=O)oc2cc(Cl)cnc21 [Azamethiphos] | – | – | – | – | No effect | – | – | No effect | – | – | –
CN/C(=N\[N+](=O)[O-])NCc1cnc(Cl)s1 [Clothianidin] | 37 | agonists | partial-agonists | 41.9 | – | partial-agonists | 54.3 | – | agonists | 75.4 | EC50 (Lsa-nAChR2 (α3β1β2)): 81 nM
CC1(C)C(C=C(Cl)Cl)C1C(=O)OC(C#N)c1cccc(Oc2ccccc2)c1 (stereo not drawn) [Cypermethrin] | – | – | – | – | No effect | – | – | No effect | – | – | –
CC1(C)[C@H](C(=O)O[C@H](C#N)c2cccc(Oc3ccccc3)c2)[C@@H]1C=C(Br)Br [Deltamethrin] | – | – | – | – | No effect | – | – | No effect | – | – | –
CN/C(=N/CC1CCOC1)N[N+](=O)[O-] (stereo not drawn) [Dinotefuran] | – | agonists | partial-agonists | 69.8 | – | super-agonist | 100.0 | – | agonists | 110.2 | EC50 (Lsa-nAChR1 (α1α2β1β2); [2]): 220 nM; EC50 (Lsa-nAChR2 (α3β1β2); [2]): 757 nM
O=[N+]([O-])NC1=NCCN1Cc1ccc(Cl)nc1 [Imidacloprid] | 69 | agonists | – | 31.8 | No effect | no effect; also recorded: did not affect; also recorded: did not demonstrate any ex-vivo effect | 100.0 | – | – | – | lethal effect / mortality of preadult parasites (L. salmonis (preadult 2)): significant lethal effect; also recorded: high mortality rates
CN1CCC[C@H]1c1cccnc1 [Nicotine] | – | – | partial-agonist | 27.9 | – | partial-agonist | – | – | – | 16.1 | EC50 (Lsa-nAChR1 (α1α2β1β2); [2]): 3950 nM; EC50 (Lsa-nAChR1 (α1α2β1β2); [3]): 3950 nM; EC50 (Lsa-nAChR2 (α3β1β2); [2]): 9980 nM; EC50 (Lsa-nAChR2 (α3β1β2); [3]): 9980 nM
CCN(Cc1ccc(Cl)nc1)/C(=C/[N+](=O)[O-])NC [Nitenpyram] | 45 | agonists | partial-agonists | 27.4 | – | partial-agonists | 17.7 | – | agonists | 70.1 | EC50 (Lsa-nAChR2 (α3β1β2)): 381 nM
N#C/N=C1\SCCN1Cc1ccc(Cl)nc1 [Thiacloprid] | – | agonists | partial-agonist | 6.1 | No effect | did not show any effect | 100.0 | – | agonists | – | EC50 (Lsa-nAChR1 (α1α2β1β2); [2]): 12 nM; type of effect on the receptor (agonist / partial-agonist / super-agonist / no effect) (Lsa-nAChR2 (α3β1β2); 1:1 (α:β) ratio, listed as thiacloprid): did not affect; also recorded: did not demonstrate any ex-vivo effect; lethal effect / mortality of preadult parasites (L. salmonis (preadult 2)): significant lethal effect; also recorded: high mortality rates
CN1COCN(Cc2cnc(Cl)s2)/C1=N\[N+](=O)[O-] [Thiamethoxam] | – | – | – | – | No effect | – | 0.0 | No effect | – | – | –
OCCCCC#Cc1cncc(OC[C@@H]2CCN2)c1 [sazetidine A, Sazetidine A] | – | – | – | – | – | – | – | – | – | – | inward current on average (Lsa-nAChR1 (α1α2β1β2); α:β = 1:10, n = 3): 0.22 μA; inward current on average (Lsa-nAChR1 (α1α2β1β2); α:β = 10:1, n = 3): 0.24 μA; inward current on average (Lsa-nAChR2 (α3β1β2); 10 μM sazetidine A, α:β = 10:1, n = 3 (assignment uncertain)): 0.50 μA; responsiveness to sazetidine A (Lsa-nAChR2 (α3β1β2); 10 μM, α:β = 10:1): responsive
Emamectin | – | – | – | – | No effect | – | – | No effect | – | – | –
